Test results from US8642594B2, “Substituted thieno[2,3-d]pyrimidines as HSP90 inhibitors” (Vernalis (R&D) Limited, priority 2003, dated 2014).
Like-named read-outs stand apart in the source and are kept apart here.

Target: T1, Human full-length Hsp90 (Homo sapiens, UniProt P08238)
T1 construct: E. coli expressed human full-length HSP90 protein, purified >95%; made in house; host or cells: E. coli
Assay: Fluorescence polarization assay (competitive binding to HSP90, probe RBT0045864-FAM)
Protocol: Fluorescence Polarization Assay
Fluorescence polarization {also known as fluorescence anisotropy} measures the rotation of a fluorescing species in solution, where the larger molecule the more polarized the fluorescence emission. When the fluorophore is excited with polarized light, the emitted light is also polarized. The molecular size is proportional to the polarization of the fluorescence emission.
The fluoroscein-labelled probe—RBT0045864-FAM—
Test compound is added to the assay plate, left to equilibrate and the anisotropy measured again. Any change in anisotropy is due to competitive binding of compound to HSP90, thereby releasing probe.
Stored at room temperature. • 3) BSA (bovine serum albumen) 10 mg/ml (New England Biolabs #B9001S) • 4) 20 mM probe in 100% DMSO stock concentration. Stored in the dark at RT. Working concentration is 200 nM diluted in AR water and stored at 4° C. […] Protocol • 1) Add 100 μl 1× buffer to wells 11A and 12A (=FP BLNK) • 2) Prepare assay mix—all reagents are kept on ice with a lid on the bucket as the probe is light-sensitive.
This gives 2.5 mM {50×} stock cpd—assuming cpds 20 mM. • 4) Repeat for wells A2 to A10. Control in columns 11 and 12. • 5) Transfer 5 μl from row A to row B—not column 12. Mix well. • 6) Transfer 5 μl from row B to row C. […] Add 2 μl of 100 mM standard cpd to wells B12-H12 {is positive control} • 13) The Z′ factor is calculated from zero controls and positive wells.

[1] = fluorescence polarization assay, activity range, read-out: Hsp90 FP IC50

T1 sequence (P08238 whole entry): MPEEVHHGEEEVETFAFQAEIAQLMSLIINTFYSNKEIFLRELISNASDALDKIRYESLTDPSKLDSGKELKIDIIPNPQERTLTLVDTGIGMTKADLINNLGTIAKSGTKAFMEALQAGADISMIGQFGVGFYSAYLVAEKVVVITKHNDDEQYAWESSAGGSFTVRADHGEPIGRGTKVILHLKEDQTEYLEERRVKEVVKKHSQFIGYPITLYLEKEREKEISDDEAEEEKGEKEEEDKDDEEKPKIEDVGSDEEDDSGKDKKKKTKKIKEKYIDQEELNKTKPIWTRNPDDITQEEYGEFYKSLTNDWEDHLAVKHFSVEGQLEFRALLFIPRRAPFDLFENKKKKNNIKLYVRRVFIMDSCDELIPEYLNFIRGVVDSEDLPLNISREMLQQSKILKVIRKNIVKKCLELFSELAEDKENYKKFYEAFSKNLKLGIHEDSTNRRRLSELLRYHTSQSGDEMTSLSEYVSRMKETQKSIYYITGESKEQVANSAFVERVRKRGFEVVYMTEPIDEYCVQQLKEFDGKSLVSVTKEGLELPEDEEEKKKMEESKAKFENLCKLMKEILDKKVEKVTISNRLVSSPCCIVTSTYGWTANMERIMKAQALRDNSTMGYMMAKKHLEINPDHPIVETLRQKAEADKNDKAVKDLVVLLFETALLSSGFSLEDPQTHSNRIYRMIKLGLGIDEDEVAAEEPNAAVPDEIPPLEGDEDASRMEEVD

Compound | IC50 [1] | IC50
CCOC(=O)c1cc2c(-c3ccc(OCC(C)C)cc3C)nc(N)nc2s1 [Example 189] | > 10 µM | 
CCOC(=O)c1cc2c(NC(C)c3ccccc3)nc(N)nc2s1 (stereo not drawn) [Example 26] | > 10 µM | 
CCNC(=O)c1cc2c(-c3cc(OCCCN(C)C)c(Cl)cc3Cl)nc(N)nc2s1 [Example 255] |  | < 10 µM
Nc1nc(-c2ccccc2)c2cc(C(=O)NCCCc3ccccc3)sc2n1 [Example 50] | > 10 µM | 
Cc1c(C(N)=O)sc2nc(N)nc(-c3ccccc3)c12 [Example 75, 2-Amino-5-methyl-4-phenyl-thieno[2,3-d]pyrimidine-6-carboxylic acid amide] | > 10 µM | 
CCOC(=O)c1cc2c(-c3ccc(CN4CCOCC4)cc3)nc(N)nc2s1 [Example 41] | > 10 µM | 
CCOC(=O)c1cc2c(-c3ccc(CN4CCCCC4)cc3)nc(N)nc2s1 [Example 33, 2-Amino-4-(4-piperidin-1-ylmethyl-phenyl)-thieno[2,3-d]pyrimidine-6-carboxylic acid ethyl ester] | > 10 µM | 
CCNC(=O)c1cc2c(-c3ccc(C#N)cc3C)nc(N)nc2s1 [Example 84] |  | < 10 µM
CNC(=O)c1cc2c(N(C)Cc3ccccc3)nc(N)nc2s1 [Example 67] | > 10 µM | 
CCNC(=O)c1cc2c(OCc3ccccc3)nc(N)nc2s1 [Example 294] | > 10 µM | 
CCOC(=O)c1sc2nc(N)nc(-c3ccccc3)c2c1Br [Example 99] | > 10 µM | 
Nc1nc(-c2ccccc2)c2cc(C(=O)NCCc3cccs3)sc2n1 [Example 55] | > 10 µM | 
CCOC(=O)c1cc2c(-c3cc(Cl)ccc3C)nc(N)nc2s1 [Example 178] | < 10 µM | 
CCOC(=O)c1cc2c(C(C#N)c3ccc(OC)cc3)nc(N)nc2s1 (stereo not drawn) [Example 318] | > 10 µM | 
CNC(=O)c1cc2c(Nc3ccccc3)nc(N)nc2s1 [Example 64] | > 10 µM | 
Nc1nc(-c2ccc(Cl)cc2Cl)c2cc(C(=O)NCc3ccccn3)sc2n1 [Example 154] | < 10 µM | 
Nc1nc(-c2ccc(Cl)cc2Cl)c2cc(C(=O)NCCCn3ccnc3)sc2n1 [Example 146] | < 10 µM | 
C=CCNCc1ccc(C)c(-c2nc(N)nc3sc(C(=O)NCC)cc23)c1 [Example 209] | < 10 µM | 
C=C(c1ccccc1)c1nc(N)nc2sc(C(=O)OCC)cc12 [Example 276] | < 10 µM | 
CCNC(=O)c1cc2c(-c3ccccc3)nc(N)nc2s1 [Example 43, 2-Amino-4-phenyl-thieno[2,3-d]pyrimidine-6-carboxylic acid ethylamide] |  | < 10 µM
CCOC(=O)CSc1nc(N)nc2sc(C(=O)OCC)cc12 [Example 20] | > 10 µM | 
Nc1nc(-c2ccccc2)c2cc(C(=O)NCCc3cnc[nH]3)sc2n1 [Example 57] | < 10 µM | 

Compound | IC50 [1] | IC50
CCOC(=O)c1cc2c(-c3cc(CNCCN4CCOCC4)ccc3C)nc(N)nc2s1 [Example 198] | < 10 µM | 
CCNC(=O)c1cc2c(-c3cc(CNCc4ccccc4)c(C)cc3C)nc(N)nc2s1 [Example 232] | < 10 µM | 
Cc1ccc(-c2nc(N)nc3sc(C(=O)NCC(N)=O)cc23)c(C)c1 [Example 95] | < 10 µM | 
CCNC(=O)c1cc2c(-c3cc(CNCCO)ccc3C)nc(N)nc2s1 [Example 205] | < 10 µM | 
Nc1nc(-c2ccc(Cl)cc2Cl)c2cc(C(=O)NCc3ccc4c(c3)OCO4)sc2n1 [Example 119] | < 10 µM | 
CCOC(=O)c1cc2c(/C=C/C(C)(C)C)nc(N)nc2s1 [Example 289] | > 10 µM | 
CSCC[C@H](NC(=O)c1cc2c(-c3ccc(Cl)cc3Cl)nc(N)nc2s1)C(N)=O [Example 166] | < 10 µM | 
CCCNC(=O)c1cc2c(-c3ccccc3)nc(N)nc2s1 [Example 47] | < 10 µM | 
CCOC(=O)c1cc2c(-c3ccc(O)cc3C)nc(N)nc2s1 [Example 184, 2-Amino-4-(4-hydroxy-2-methyl-phenyl)-thieno[2,3-d]pyrimidine-6-carboxylic acid ethyl ester] | < 10 µM | 
CCOC(=O)c1cc2c(-c3cccc(Cl)c3)nc(N)nc2s1 [Example 14] | > 10 µM | 
NC(=O)c1ccc(NC(=O)c2cc3c(-c4ccc(Cl)cc4Cl)nc(N)nc3s2)cc1 [Example 110] | < 10 µM | 
Nc1nc(-c2ccccc2)c2cc(C(=O)NCCO)sc2n1 [Example 72] | < 10 µM | 
CC(C)NC(=O)c1cc2c(-c3cc(OCCN4CCCC4)c(Cl)cc3Cl)nc(N)nc2s1 [Example 257] | < 10 µM | 
CCOC(=O)c1cc2c(-c3cc(Cl)ccc3Cl)nc(N)nc2s1 [Example 106] | > 10 µM | 
CCOC(=O)c1cc2c(-c3ccc(OCCN(CC)CC)cc3C)nc(N)nc2s1 [Example 190] | > 10 µM | 
CCNC(=O)c1cc2c(-c3cc(OCCN(CC)CC)c(Cl)cc3Cl)nc(N)nc2s1 [Example 235, 2-Amino-4-[2,4-dichloro-5-(2-diethylamino-ethoxy)-phenyl]-thieno[2,3-d]pyrimidine-6-carboxylic acid ethyl amide] |  | < 10 µM
CCNC(=O)c1cc2c(-c3cc(OCc4ccccn4)c(Cl)cc3Cl)nc(N)nc2s1 [Example 261] | < 10 µM | 
CCNC(=O)c1cc2c(-c3cc(C=O)ccc3C)nc(N)nc2s1 [Example 170] | < 10 µM | 
CCOC(=O)c1cc2c(NC(c3ccccc3)c3ccccc3)nc(N)nc2s1 [Example 25] | > 10 µM | 
CCNC(=O)c1cc2c(-c3cc(CNCc4cccs4)c(C)cc3C)nc(N)nc2s1 [Example 233] | < 10 µM | 
CN1CCC(NC(=O)c2cc3c(-c4ccc(Cl)cc4Cl)nc(N)nc3s2)CC1 [Example 137] | < 10 µM | 
Nc1nc(-c2ccc(Cl)cc2Cl)c2cc(C(=O)NCc3cccc(C(F)(F)F)c3)sc2n1 [Example 122] | < 10 µM | 

The next lines start with results.

IC50 [1] | Compound | IC50
< 10 µM | Nc1nc(-c2ccc(Cl)cc2Cl)c2cc(C(=O)NC3CC3)sc2n1 [Example 155] | 
< 10 µM | C=CCOc1ccc(-c2nc(N)nc3sc(C(=O)OCC)cc23)c(C)c1 [Example 187] | 
< 10 µM | Nc1nc(-c2ccc(Cl)cc2Cl)c2cc(C(=O)Nc3nccs3)sc2n1 [Example 142] | 
< 10 µM | CCNC(=O)c1cc2c(-c3cc(OCC(C)CN(C)C)c(Cl)cc3Cl)nc(N)nc2s1 (stereo not drawn) [Example 256] | 
< 10 µM | C[C@H](NC(=O)c1cc2c(-c3ccc(Cl)cc3Cl)nc(N)nc2s1)C(N)=O [Example 160] | 
< 10 µM | CCOC(=O)c1cc2c(C(=O)c3ccc(OC)c(OC)c3)nc(N)nc2s1 [Example 310] | 
< 10 µM | COc1ccc(CNC(=O)c2cc3c(-c4ccc(Cl)cc4Cl)nc(N)nc3s2)cc1 [Example 118] | 
< 10 µM | CCNC(=O)c1cc2c(-c3cc(OCc4noc(-c5ccccc5OC)n4)c(Cl)cc3Cl)nc(N)nc2s1 [Example 269] | 
< 10 µM | CCOC(=O)c1cc2c(-c3ccccc3Cl)nc(N)nc2s1 [Example 9] | 
< 10 µM | C=C(c1ccccc1)c1nc(N)nc2sc(C(=O)NCC)cc12 [Example 283] | 
< 10 µM | Nc1nc(-c2ccc(Cl)cc2Cl)c2cc(C(=O)NCCO)sc2n1 [Example 136] | 
< 10 µM | Nc1nc(-c2ccc(Cl)cc2Cl)c2cc(C(=O)Nc3cccc(Cl)c3)sc2n1 [Example 109] | 
< 10 µM | CCNC(=O)c1cc2c(-c3cc(CNCCCOC)ccc3C)nc(N)nc2s1 [Example 202] | 
< 10 µM | CCOC(=O)c1cc2c(C(=O)c3ccc(OC)cc3)nc(N)nc2s1 [Example 297] | 
< 10 µM | CCOC(=O)c1cc2c(C(=O)c3ccc(Cl)c(F)c3)nc(N)nc2s1 [Example 313] | 
< 10 µM | Nc1nc(-c2ccc(Cl)cc2Cl)c2cc(C(=O)NCc3ccc(Cl)cc3)sc2n1 [Example 121] | 
< 10 µM | C[C@@H](NC(=O)c1cc2c(-c3ccc(Cl)cc3Cl)nc(N)nc2s1)c1ccccc1 [Example 138] | 
< 10 µM | C=CCc1ccc(-c2nc(N)nc3sc(C(=O)NCC)cc23)c(C)c1 [Example 176] | 
< 10 µM | CCN(CC)CCOc1cc(-c2nc(N)nc3sc(C(=O)NC(CO)CO)cc23)c(Cl)cc1Cl [Example 266] | 
< 10 µM | Nc1nc(-c2ccc(Cl)cc2Cl)c2cc(C(=O)NCCc3ccccn3)sc2n1 [Example 156] | 
< 10 µM | Cc1ccc(-c2nc(N)nc3sc(C(=O)NCCCN(C)C)cc23)c(C)c1 [Example 83] | 
< 10 µM | CCOC(=O)c1cc2c(C(=O)c3ccc(F)cc3)nc(N)nc2s1 [Example 305] | 
< 10 µM | CCOC(=O)c1cc2c(-c3ccc(C(F)(F)F)cc3C(F)(F)F)nc(N)nc2s1 [Example 4] | 
< 10 µM | Cc1ccc(-c2nc(N)nc3sc(C(=O)NCc4ccccc4)cc23)c(C)c1 [Example 92] | 
< 10 µM | Nc1nc(-c2ccc(Cl)cc2Cl)c2cc(C(=O)Nc3ccc(Cl)cc3)sc2n1 [Example 111] | 
< 10 µM | CCNC(=O)c1cc2c(-c3ccc(CC)cc3Cl)nc(N)nc2s1 [Example 177] | 
< 10 µM | CCCOc1ccc(-c2nc(N)nc3sc(C(=O)OCC)cc23)c(C)c1 [Example 185, 2-Amino-4-(2-methyl-4-propoxy-phenyl)-thieno[2,3-d]pyrimidine-6-carboxylic acid ethyl ester] | 
< 10 µM | NC(=O)[C@H](Cc1cnc[nH]1)NC(=O)c1cc2c(-c3ccc(Cl)cc3Cl)nc(N)nc2s1 [Example 164] | 
